The record followed here is PMC6273687, “Design, Synthesis and Biological Evaluation of Novel Primaquine-Cinnamic Acid Conjugates of the Amide and Acylsemicarbazide Type” (Molecules, 2016).

The structures appear in SMILES notation.

The subject of assay [1] is CEM acute lymphoblastic leukemia cell line. The assay is described as follows: Growth inhibition of tumor cell lines in vitro (MTT / cell counting). Format: cell-based. The settings on record: Homo sapiens, 96 h, 4 days. The procedure:
(§1) The experiments were carried out on a murine lymphocytic leukemia cell line (L1210) and five human tumor cell lines: CEM, HeLa, NCI-H460, SW 620 and MCF-7. The cells were cultured as monolayers and maintained in Dulbecco′s modified Eagle medium (DMEM) supplemented with 10% fetal bovine serum (FBS), 2 mM L-glutamine, 100 U/mL penicillin and 100 μg/mL streptomycin in a humidified atmosphere with 5% CO2 at 37 °C.
(§2) The growth inhibition activity of the compounds was assessed as described previously. The cell lines were inoculated onto a series of standard 96-well microtiter plates on day 0, at 1.5 × 10^4 cells/mL (SW 620, H460) to 2.5 × 10^4 cells/mL (MCF-7, CEM and L1210), depending on the growth of the tumor cell line. Test agents were then added in ten-fold dilutions (10^−8 to 10^−4 M) and the cell cultures were then incubated for 3–4 days with 5% CO2 at 37 °C. Working dilutions of the compounds were freshly prepared on the day of testing.
(§3) After 3 (MCF-7, SW 620, NCI-H460) or 4 days (CEM, L1210), the cell growth rate was evaluated first light microscopically, then by viable cell counting and/or by performing the MTT assay, which detects dehydrogenase activity in live, not dead, cells. The absorbance (A) was measured on a microplate reader at 570 nm. The absorbance is directly proportional to the number of living, metabolically active cells. […] If however, all of the tested concentrations produce PGs exceeding the respective reference level of effect (e.g., PG value of 50), then the highest tested concentration is assigned as the default value, which is preceded by a “>” sign. Minimum two individual experiments were carried out and each test point was performed in quadruplicate.

The test system of assay [2] is HeLa cervical carcinoma cell line. The description is as above. Format: cell-based. The settings on record: Homo sapiens. How it is done:
as §1, §2, §3

For assay [3], the system named is L1210 murine lymphocytic leukemia cell line. The description is as above. Format: cell-based. To be noted: Mus musculus, 96 h; L1210, 4 days. How it is done:
as §1, §2, §3

Assay [4] deals with SW 620 colon carcinoma cell line. Described as above. Format: cell-based. To be noted: Homo sapiens, 72 h; SW 620, 3 days. The procedure: as §1, §2, §3
Assay [5] deals with MCF-7 breast carcinoma cell line. The description is as above. Format: cell-based, human. To be noted: for IC50: Homo sapiens, MCF7, 72 h, MCF-7, 3 days. How it is done:
as §1, §2, §3

For assay [6], the system named is NCI-H460 lung carcinoma cell line. The description is as above. Format: cell-based, human. To be noted: Homo sapiens, 72 h; NCI-H460, 3 days. How it is done: as §1, §2, §3
A short description of assay [7]: Interaction with the stable radical DPPH (reducing ability). The procedure: To a solution of DPPH in absolute ethanol the appropriate volume of the compounds (50 or 100 µM final concentrations) dissolved in DMSO was added. The absorbance was recorded at 517 nm after 20 and 60 min at room temperature. The experiments were repeated at least in triplicate and the standard deviation of absorbance was less than 10% of the mean. NDGA was used under the same experimental conditions as a reference compound.
For orientation: Loss of DPPH colour is used to gauge radical scavenging.

Assay [8] concerns the target T1, soybean lipoxygenase (LOX) (Glycine max, UniProt P08170).
T1 construct: purchased Sigma-Aldrich
T1 sequence (P08170 1-839): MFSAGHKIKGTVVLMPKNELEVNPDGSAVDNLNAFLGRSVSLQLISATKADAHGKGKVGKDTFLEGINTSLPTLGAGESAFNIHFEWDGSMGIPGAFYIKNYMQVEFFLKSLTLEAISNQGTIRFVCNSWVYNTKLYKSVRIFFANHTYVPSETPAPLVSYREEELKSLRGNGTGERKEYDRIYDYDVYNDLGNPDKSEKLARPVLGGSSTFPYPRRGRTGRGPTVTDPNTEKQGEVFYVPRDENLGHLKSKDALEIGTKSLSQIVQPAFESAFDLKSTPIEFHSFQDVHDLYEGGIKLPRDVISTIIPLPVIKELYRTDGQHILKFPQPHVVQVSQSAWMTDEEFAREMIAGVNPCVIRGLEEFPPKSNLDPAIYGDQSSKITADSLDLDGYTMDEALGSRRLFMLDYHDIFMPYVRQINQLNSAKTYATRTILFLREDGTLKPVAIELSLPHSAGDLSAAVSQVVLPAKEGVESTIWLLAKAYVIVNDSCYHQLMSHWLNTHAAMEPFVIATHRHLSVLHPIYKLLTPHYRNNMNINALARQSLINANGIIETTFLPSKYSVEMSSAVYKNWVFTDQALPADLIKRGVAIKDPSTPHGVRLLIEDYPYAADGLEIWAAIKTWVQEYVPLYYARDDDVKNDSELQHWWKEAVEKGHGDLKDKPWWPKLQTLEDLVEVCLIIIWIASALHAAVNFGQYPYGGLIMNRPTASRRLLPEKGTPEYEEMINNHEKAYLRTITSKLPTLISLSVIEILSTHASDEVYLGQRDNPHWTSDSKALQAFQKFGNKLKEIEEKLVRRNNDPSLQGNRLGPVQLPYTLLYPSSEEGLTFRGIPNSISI
Put plainly: LOX inhibition study in vitro. Format: biochemical. The settings on record: for IC50: values in parentheses in Table 3; for inhibition at 100 µM: 1 × 10^−4 M. How it is done: LOX inhibitory assay in vitro was accomplished as described previously. The test compounds (stock solutions 10 mM in DMSO) were incubated at room temperature with sodium linoleate (c = 0.1 mM) and 0.2 mL of LOX enzyme solution (1/9 × 10^−4 m/V in saline). The conversion of sodium linoleate to 13-hydroperoxylinoleic acid was measured at 234 nm and compared with the reference inhibitor. Several concentrations were used for the IC50 determination.

A short description of assay [9]: Inhibition of linoleic acid peroxidation (AAPH-induced). To be noted: 5 × 10^−5 M. The procedure: For initiating the lipid peroxidation free radical AAPH was used. Final solution in the UV cuvette consisted of 10 μL linoleate sodium solution (c = 16 mM), 0.93 mL phosphate buffer (c = 0.05 M), pH 7.4, thermostated at 37 °C. 50 μL AAPH solution (c = 40 mM) and 10 μL of the tested compounds were added. The experiment was performed at 37 °C under air. The oxidation of linoleic acid sodium salt was monitored at 234 nm. The assays were repeated at least in triplicate and the standard deviation of absorbance was less than 10% of the mean. Trolox was used under the same experimental conditions as a reference compound.

The next assay relates to human coronavirus (229E). The assay is described as follows: microbe, parasite or virus in culture. Format: cell-based. To be noted: read-out: EC50 (concentration required to reduce virus-induced cytopathogenicity by 50%), HEL cell cultures. Background: Protection from cytopathic effect is a common read-out in antiviral testing.

Turning to `COc1cc(NC(C)CCCNC(=O)NNC(=O)/C=C/c2ccc(C(F)(F)F)cc2)c2ncccc2c1` (stereo not drawn) [7j, (E)-4-(4-(6-Methoxyquinolin-8-ylamino)pentyl)-1-(3-(4-(trifluoromethyl)phenyl)acryloyl)semicarbazide], the IC50 turned out to be 9.4 ± 5.6 µM in assay [1]; 28 ± 12 µM in [2]; 27 µM in assay [3]; 40 ± 5 µM in [4]; 0.03 ± 0.02 µM in assay [5]; 34 ± 2 µM in assay [6]. Also, the IC50 in [8] was found to be 35 µM. Moreover, the “fold higher activity than PQ” value in assay [5] (MCF-7) amounted to 900 fold. Also, the “fold higher activity than the anticancer reference drugs” value in [5] (MCF-7) is recorded as 100-to 500 fold. The “DPPH-reducing ability RA (%)” value in assay [7] (1 × 10^−4 M, 20 min) came out at 100%; in [7] (1 × 10^−4 M, 60 min) it was 95%; in [7] (5 × 10^−5 M, 20 min) it was 42%; in [7] (5 × 10^−5 M, 60 min), 79%. Besides, the “LP Inhibition (%)” value in [9] is 50%. In addition, the EC50 with human coronavirus (229E) was 9.5 µM.

Regarding `COc1cc(NC(C)CCCNC(=O)/C=C/c2ccc(C(F)(F)F)cc2)c2ncccc2c1` (stereo not drawn) [3j, (E)-N-(4-(6-Methoxyquinolin-8-ylamino)pentyl)-3-(4-(trifluoromethyl)phenyl)acrylamide], the IC50 in assay [1] is 14 ± 1 µM; in [2] it was 25 ± 6 µM; in assay [3] it was 50 ± 18 µM; in assay [4] it was greater than 100 µM; in [5] it was 3.9 ± 0.6 µM; in assay [6], greater than 100 µM. Also, in [8], the IC50 is 50 µM. Also, the “DPPH-reducing ability RA (%)” value in [7] (1 × 10^−4 M, 20 min) is recorded as 38%; in [7] (1 × 10^−4 M, 60 min), 40%. In addition, the “LP Inhibition (%)” value in assay [9] worked out at 77%.

On to `COc1cc(NC(C)CCCNC(=O)/C=C/c2cccc(C(F)(F)F)c2)c2ncccc2c1` (stereo not drawn) [3i], for which the IC50 in [1] is 41 ± 15 µM; in assay [2], 112 ± 11 µM; in [3], 68 ± 2 µM; in assay [4], 64 ± 41 µM; in assay [5], 11 ± 2 µM; in [6], greater than 100 µM. For the same compound, the “DPPH-reducing ability RA (%)” value is 8% in assay [7] (1 × 10^−4 M, 60 min) and 13% in [7] (5 × 10^−5 M, 60 min). Further, in assay [8], 100 µM produced 19% inhibition. Besides, the “LP Inhibition (%)” value in assay [9] is reported as 32%.

For `COc1cc(NC(C)CCCNC(=O)/C=C/c2ccc(Cl)cc2)c2ncccc2c1` (stereo not drawn) [3g, (E)-3-(4-Chlorophenyl)-N-(4-(6-methoxyquinolin-8-ylamino)pentyl)acrylamide], the IC50 in assay [1] is 20 ± 2 µM; in assay [2], 36 ± 16 µM; in [3] it was 63 ± 2 µM; in [4], greater than 100 µM; in [5], 4.3 ± 1 µM; in assay [6] it was greater than 100 µM. Besides, the “DPPH-reducing ability RA (%)” value in [7] (1 × 10^−4 M, 20 min) worked out at 27%; in assay [7] (1 × 10^−4 M, 60 min) it was 46%. This compound registered an inhibition at 100 µM in [8] of 17%. The “LP Inhibition (%)” value in [9] is on record as 46%.

Regarding `COc1cc(NC(C)CCCNC(=O)/C=C/c2ccccc2)c2ncccc2c1` (stereo not drawn) [3a, (E)-N-(4-(6-Methoxyquinolin-8-ylamino)pentyl)-3-phenylacrylamide], the IC50 in assay [1] is 27 ± 4 µM; in [2], 4 ± 0.9 µM; in assay [3], 52 ± 3 µM; in [4], 23 ± 9 µM; in [5], 24 ± 5 µM; in assay [6] it was greater than 1 µM. Further, the “DPPH-reducing ability RA (%)” value in assay [7] (1 × 10^−4 M, 20 min) is reported as 53%; in assay [7] (1 × 10^−4 M, 60 min), 33%; in assay [7] (5 × 10^−5 M, 20 min) it was 16%; in assay [7] (5 × 10^−5 M, 60 min), 20%. The compound also returned an inhibition at 100 µM in assay [8] of 19%. Moreover, the “LP Inhibition (%)” value in assay [9] is listed as 44%.

Regarding `COc1cc(NC(C)CCCNC(=O)/C=C/c2cc(OC)c(OC)c(OC)c2)c2ncccc2c1` (stereo not drawn) [3e, (E)-N-(4-(6-Methoxyquinolin-8-ylamino)pentyl)-3-(3,4,5-trimethoxyphenyl)acrylamide], the IC50 in [1] was 55 ± 16 µM; in assay [2] it was greater than 125 µM; in assay [3] it was 22 ± 2 µM; in assay [4], greater than 100 µM; in [5], 8.7 ± 0.3 µM; in [6], greater than 100 µM. The “DPPH-reducing ability RA (%)” value in [7] (1 × 10^−4 M, 20 min) amounted to 16%; in [7] (1 × 10^−4 M, 60 min), 23%; in assay [7] (5 × 10^−5 M, 20 min), 4%; in [7] (5 × 10^−5 M, 60 min), 9%. This compound displayed an inhibition at 100 µM in assay [8] of 26%. In addition, in [9], the “LP Inhibition (%)” value was 47%.

Regarding `COc1cc(NC(C)CCCNC(=O)NNC(=O)/C=C/c2ccccc2F)c2ncccc2c1` (stereo not drawn) [7h, (E)-1-(3-(2-Fluorophenyl)acryloyl)-4-(4-(6-methoxyquinolin-8-ylamino)pentyl)semicarbazide], the IC50 in [1] was found to be 15 ± 2 µM; in assay [2], 46 ± 2 µM; in assay [3], 40 ± 4 µM; in assay [4], 12 ± 4 µM; in [5], 5.9 ± 2 µM; in assay [6], 12 ± 0.2 µM. Further, the IC50 in assay [8] was 41 µM. For the same compound, the “DPPH-reducing ability RA (%)” value is 52% in assay [7] (1 × 10^−4 M, 20 min); 100% in [7] (1 × 10^−4 M, 60 min); 61% in assay [7] (5 × 10^−5 M, 20 min); 100% in [7] (5 × 10^−5 M, 60 min). In [9], the “LP Inhibition (%)” value is listed as 67%.

In the case of `COc1cc(NC(C)CCCNC(=O)NNC(=O)/C=C/c2ccc(OC)c(OC)c2)c2ncccc2c1` (stereo not drawn) [7d, (E)-1-(3-(3,4-Dimethoxyphenyl)acryloyl)-4-(4-(6-methoxyquinolin-8-ylamino)pentyl)semicarbazide], the IC50 was 93 ± 46 µM in assay [1]; 92 ± 30 µM in [2]; 40 ± 14 µM in assay [3]; 25 ± 9 µM in assay [4]; 1.9 ± 1.8 µM in [5]; 32 ± 21 µM in assay [6]. In addition, the IC50 in assay [8] worked out at 10 µM. Also, the “DPPH-reducing ability RA (%)” value is given as 100% in [7] (1 × 10^−4 M, 20 min); 100% in assay [7] (1 × 10^−4 M, 60 min); 55% in [7] (5 × 10^−5 M, 20 min); 100% in assay [7] (5 × 10^−5 M, 60 min). Besides, the “LP Inhibition (%)” value in assay [9] is reported as 88%.

By IC50 is commonly meant the midpoint of a concentration-inhibition curve. The term inhibition denotes the share of the control response that was lost under treatment.
